Measurements as given in US10092620B2, “Uses of cyclic peptides for treating and preventing atherosclerosis” (THE SCRIPPS RESEARCH INSTITUTE, priority 2013, dated 2018).
Non-standard residues stand in square brackets, D forms with d. 2Nal = N[C@@H](Cc1ccc2ccccc2c1)C(=O)O; 4Pal = N[C@@H](Cc1ccncc1)C(=O)O; Aoc(2) = CCCCCC[C@H](N)C(=O)O; Orn = NCCC[C@H](N)C(=O)O

Tested on: HDL in human plasma
Experiment: pre-beta HDL ELISA assay: remodeling HDL in human plasma in vitro
Format: biochemical
Details: pre-beta HDL ELISA
Description: First, various cyclic peptides, including the majority of compounds shown in FIG. 2, were assessed for activities for remodeling HDL in human plasma in vitro. Unlike western blot which was used to generate data shown in FIG. 2, here a pre-beta HDL ELISA assay was used to measure pre-beta HDL levels. Results from the assay are shown in Table 1, which lists the peptides in the order of their activities in remodeling HDL.

Substance	Pre-beta HDL generated (normalized level)
17 (cyclo(Y[dW]D[dS]K[dH]); SMILES NCCCC[C@@H]1NC(=O)[C@@H](CO)NC(=O)[C@H](CC(=O)O)NC(=O)[C@@H](Cc2c[nH]c3ccccc23)NC(=O)[C@H](Cc2ccc(O)cc2)NC(=O)[C@@H](Cc2c[nH]cn2)NC1=O) [compound 17]	0.08
50 (cyclo(WIW[dR]E[dQ]E[dR]); SMILES CC[C@H](C)[C@@H]1NC(=O)[C@H](Cc2c[nH]c3ccccc23)NC(=O)[C@@H](CCCNC(=N)N)NC(=O)[C@H](CCC(=O)O)NC(=O)[C@@H](CCC(N)=O)NC(=O)[C@H](CCC(=O)O)NC(=O)[C@@H](CCCNC(=N)N)NC(=O)[C@H](Cc2c[nH]c3ccccc23)NC1=O) [compound 50]	0.54
w(Aoc)wReQeR (cyclo([dW][Aoc(2)][dW]R[dE]Q[dE]R); ring closure inferred) [SEQ ID NO:31]	0.04
51 (cyclo([dF]W[dW]Y[dT]R[dH]S); SMILES C[C@H](O)[C@H]1NC(=O)[C@H](Cc2ccc(O)cc2)NC(=O)[C@@H](Cc2c[nH]c3ccccc23)NC(=O)[C@H](Cc2c[nH]c3ccccc23)NC(=O)[C@@H](Cc2ccccc2)NC(=O)[C@H](CO)NC(=O)[C@@H](Cc2c[nH]cn2)NC(=O)[C@H](CCCNC(=N)N)NC1=O) [compound 51]	1.44
56 (cyclo([dF]F[dY]Y[dS]R[dK][Orn]); ring closure inferred) [compound 56]	0.31
5 (cyclo([dF]W[dW]Y[dQ]H[dH]Q); SMILES NC(=O)CC[C@@H]1NC(=O)[C@@H](Cc2c[nH]cn2)NC(=O)[C@H](Cc2c[nH]cn2)NC(=O)[C@@H](CCC(N)=O)NC(=O)[C@H](Cc2ccc(O)cc2)NC(=O)[C@@H](Cc2c[nH]c3ccccc23)NC(=O)[C@H](Cc2c[nH]c3ccccc23)NC(=O)[C@@H](Cc2ccccc2)NC1=O) [compound 5]	1.29
19 (cyclo([dW]L[dW][Orn][dE]N[dE][Orn]); SMILES CC(C)C[C@@H]1NC(=O)[C@@H](Cc2c[nH]c3ccccc23)NC(=O)[C@H](CCCN)NC(=O)[C@@H](CCC(=O)O)NC(=O)[C@H](CC(N)=O)NC(=O)[C@@H](CCC(=O)O)NC(=O)[C@H](CCCN)NC(=O)[C@@H](Cc2c[nH]c3ccccc23)NC1=O) [compound 19]	0.36
23 (cyclo([dW]L[dW]R[dE]N[dE][Orn]); SMILES CC(C)C[C@@H]1NC(=O)[C@@H](Cc2c[nH]c3ccccc23)NC(=O)[C@H](CCCN)NC(=O)[C@@H](CCC(=O)O)NC(=O)[C@H](CC(N)=O)NC(=O)[C@@H](CCC(=O)O)NC(=O)[C@H](CCCNC(=N)N)NC(=O)[C@@H](Cc2c[nH]c3ccccc23)NC1=O) [compound 23]	0.16
78 (cyclo([dY]L[dW]K[dK]K); SMILES CC(C)C[C@@H]1NC(=O)[C@@H](Cc2ccc(O)cc2)NC(=O)[C@H](CCCCN)NC(=O)[C@@H](CCCCN)NC(=O)[C@H](CCCCN)NC(=O)[C@@H](Cc2c[nH]c3ccccc23)NC1=O) [compound 78]	0.01
72 (cyclo([dL]W[dK]H[dS]H[dK]K); SMILES CC(C)C[C@H]1NC(=O)[C@H](CCCCN)NC(=O)[C@@H](CCCCN)NC(=O)[C@H](Cc2c[nH]cn2)NC(=O)[C@@H](CO)NC(=O)[C@H](Cc2c[nH]cn2)NC(=O)[C@@H](CCCCN)NC(=O)[C@H](Cc2c[nH]c3ccccc23)NC1=O) [compound 72]	0.04
69 (cyclo([dL]W[dL]H[dE]K[dK]H); SMILES CC(C)C[C@H]1NC(=O)[C@H](Cc2c[nH]cn2)NC(=O)[C@@H](CCCCN)NC(=O)[C@H](CCCCN)NC(=O)[C@@H](CCC(=O)O)NC(=O)[C@H](Cc2c[nH]cn2)NC(=O)[C@@H](CC(C)C)NC(=O)[C@H](Cc2c[nH]c3ccccc23)NC1=O) [compound 69]	0.07
64 (cyclo([dW]F[dW]Y[dR]S[dS]H); SMILES N=C(N)NCCC[C@H]1NC(=O)[C@H](Cc2ccc(O)cc2)NC(=O)[C@@H](Cc2c[nH]c3ccccc23)NC(=O)[C@H](Cc2ccccc2)NC(=O)[C@@H](Cc2c[nH]c3ccccc23)NC(=O)[C@H](Cc2c[nH]cn2)NC(=O)[C@@H](CO)NC(=O)[C@H](CO)NC1=O) [compound 64]	0.16
79 (cyclo([dW]L[dK]S[dK]S[dK]S); SMILES CC(C)C[C@@H]1NC(=O)[C@@H](Cc2c[nH]c3ccccc23)NC(=O)[C@H](CO)NC(=O)[C@@H](CCCCN)NC(=O)[C@H](CO)NC(=O)[C@@H](CCCCN)NC(=O)[C@H](CO)NC(=O)[C@@H](CCCCN)NC1=O) [compound 79]	0.01
48 (cyclo([dW]F[dY]Y[dH][Orn][dR]S); SMILES N=C(N)NCCC[C@H]1NC(=O)[C@H](CCCN)NC(=O)[C@@H](Cc2c[nH]cn2)NC(=O)[C@H](Cc2ccc(O)cc2)NC(=O)[C@@H](Cc2ccc(O)cc2)NC(=O)[C@H](Cc2ccccc2)NC(=O)[C@@H](Cc2c[nH]c3ccccc23)NC(=O)[C@H](CO)NC1=O) [compound 48]	0.70
62 (cyclo([dY]Y[dV]Y[dH]H); SMILES CC(C)[C@H]1NC(=O)[C@H](Cc2ccc(O)cc2)NC(=O)[C@@H](Cc2ccc(O)cc2)NC(=O)[C@H](Cc2c[nH]cn2)NC(=O)[C@@H](Cc2c[nH]cn2)NC(=O)[C@H](Cc2ccc(O)cc2)NC1=O) [compound 62]	0.17
67 (cyclo([dW][homoleucine][dW]R[dE]Q[dE]R); ring closure inferred) [compound 67]	0.08
12 (cyclo([dW]L[dW]H[dE]N[dE]K); SMILES CC(C)C[C@@H]1NC(=O)[C@@H](Cc2c[nH]c3ccccc23)NC(=O)[C@H](CCCCN)NC(=O)[C@@H](CCC(=O)O)NC(=O)[C@H](CC(N)=O)NC(=O)[C@@H](CCC(=O)O)NC(=O)[C@H](Cc2c[nH]cn2)NC(=O)[C@@H](Cc2c[nH]c3ccccc23)NC1=O) [compound 12]	0.07
49 (cyclo([4Pal][dW]L[dL]H[dS]K[dK]); not fully specified; printed as c[(PA)wLlHsKk]) [compound 49]	0.67
c[wLwKeNeK] (cyclo([dW]L[dW]K[dE]N[dE]K); SMILES CC(C)C[C@@H]1NC(=O)[C@@H](Cc2c[nH]c3ccccc23)NC(=O)[C@H](CCCCN)NC(=O)[C@@H](CCC(=O)O)NC(=O)[C@H](CC(N)=O)NC(=O)[C@@H](CCC(=O)O)NC(=O)[C@H](CCCCN)NC(=O)[C@@H](Cc2c[nH]c3ccccc23)NC1=O) [SEQ ID NO:11]	0.24
34 (cyclo([dY]D[dY]W[dY]H[dA]K); not fully specified (residues 2, 4, 6, 8)) [compound 34]	0.08
60 (cyclo([dW][2Nal][dK]S[dK]S[dK]S); ring closure inferred) [compound 60]	0.20
2 (cyclo([dW]L[dW]K[dD]Q[dE]K); SMILES CC(C)C[C@@H]1NC(=O)[C@@H](Cc2c[nH]c3ccccc23)NC(=O)[C@H](CCCCN)NC(=O)[C@@H](CCC(=O)O)NC(=O)[C@H](CCC(N)=O)NC(=O)[C@@H](CC(=O)O)NC(=O)[C@H](CCCCN)NC(=O)[C@@H](Cc2c[nH]c3ccccc23)NC1=O) [compound 2]	0.10
